Laboratory results as given in article PMC8540442, “KBE009: A Bestatin-Like Inhibitor of the Trypanosoma cruzi Acidic M17 Aminopeptidase with In Vitro Anti-Trypanosomal Activity” (Life, 2021).

Target: T1, TcLAP (T. cruzi acidic M17 leucyl-aminopeptidase; LAPTc) (Trypanosoma cruzi, UniProt Q4DZJ3)
T1 construct: gene Tc00.1047053508799.240; recombinant TcLAP (rTcLAP)
T1 sequence (Q4DZJ3 1-520): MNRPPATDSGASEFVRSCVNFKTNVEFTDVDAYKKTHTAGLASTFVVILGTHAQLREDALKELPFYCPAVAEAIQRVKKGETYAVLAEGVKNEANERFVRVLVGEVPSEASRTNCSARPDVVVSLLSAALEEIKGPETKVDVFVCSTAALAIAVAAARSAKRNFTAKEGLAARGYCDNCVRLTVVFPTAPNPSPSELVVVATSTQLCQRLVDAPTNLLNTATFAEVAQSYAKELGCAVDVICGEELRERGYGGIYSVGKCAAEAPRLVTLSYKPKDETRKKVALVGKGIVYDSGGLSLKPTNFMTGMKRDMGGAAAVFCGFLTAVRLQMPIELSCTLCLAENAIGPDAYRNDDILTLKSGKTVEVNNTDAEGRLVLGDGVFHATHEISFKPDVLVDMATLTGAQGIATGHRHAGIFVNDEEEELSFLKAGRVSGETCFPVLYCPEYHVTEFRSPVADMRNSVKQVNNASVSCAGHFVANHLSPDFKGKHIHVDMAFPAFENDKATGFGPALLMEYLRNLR
Assay: continuous chromogenic assay of purified rTcLAP with Leu-pNA at […] nm, […] min preincubation
Assay type: biochemical

For CC(C)C[C@@H](C(=O)O)N(C(=O)[C@H](N)Cc1ccccc1)C(C(=O)NCc1ccccc1)c1ccco1 (stereo partly shown) [KBE009], which IC50 is on record?
The IC50 was 66 ± 13.5 µM.
